The text below walks through data of ChEMBL document CHEMBL5050844 (2019).

Each structure is given as a SMILES string. Where only a bound is given, the exact number is not on record here.

Format in all cases: functional, T cell line
A short description of experiment [1]: Induction of anti-CD3/CD28 antibodies-stimulated human T cell activation at 0.3 uM assessed fold increase in CD25 expression measured by ELISA assay. (In general: An ELISA detects its analyte on a solid surface through an enzyme-linked reagent.)
The nature of experiment [2]: Induction of anti-CD3 antibodies-stimulated human T cell activation at 8 uM assessed fold increase in IL-2 secretion measured by ELISA assay. Also: reference of the scale not given here.
Experiment [3] in a line: Induction of anti-CD3 antibodies-stimulated human T cell activation at 8 uM assessed fold increase in CD25 expression measured by ELISA assay. Also: reference of the scale not given here.
Experiment [4] is described as follows: Induction of anti-CD3 antibodies-stimulated human T cell activation at 1 uM assessed fold increase in CD25 expression measured by ELISA assay. Also: reference of the scale not given here.
Experiment [5] can be described thus: Induction of anti-CD3 antibodies-stimulated human T cell activation at 1 uM assessed fold increase in IL-2 secretion measured by ELISA assay. Also: reference of the scale not given here.
Experiment [6] can be described thus: Induction of anti-CD3/CD28 antibodies-stimulated human T cell activation at 1 uM assessed fold increase in CD25 expression measured by ELISA assay.
Experiment [7] in a line: Induction of anti-CD3/CD28 antibodies-stimulated human T cell activation at 4 uM assessed fold increase in CD25 expression measured by ELISA assay.
Experiment [8] can be described thus: Induction of anti-CD3/CD28 antibodies-stimulated human T cell activation at 0.3 uM assessed fold increase in IL-2 secretion measured by ELISA assay.
A short description of experiment [9]: Induction of anti-CD3/CD28 antibodies-stimulated human T cell activation at 4 uM assessed fold increase in IL-2 secretion measured by ELISA assay.
Experiment [10] can be described thus: Induction of anti-CD3/CD28 antibodies-stimulated human T cell activation at 1 uM assessed fold increase in IL-2 secretion measured by ELISA assay.

As to `C[C@H](Cc1nncn1C)c1cccc(NC(=O)c2cc(C(C)(C)O)cc(C(F)(F)F)n2)c1`, the “fold change (FC)” value in experiment [1] is reported as 1.01; in [2], “>=0.201”; in [3], “>=1.001”; in [4], 0.801; in [5], 0.101; in experiment [6] it was 1.01. For the same molecule, the “fold change (FC)” value in experiment [7] is 1.01; in experiment [8], 1.01; in experiment [9], 5; in [10], 2.51.
`C[C@H](Sc1nncn1C)c1cccc(NC(=O)c2cc(C(=O)N3C[C@H](O)C[C@@H]3C)ccn2)c1`: the “fold change (FC)” value in experiment [1] is 1.01; in [2], “<=0.05”; in experiment [3], 0.601; in experiment [4], “<=0.6”; in [5], “<=0.05”; in experiment [6] it was 1.01. The “fold change (FC)” value in [7] was 1.01; in experiment [8], “>=7.5”; in [9], “>=7.5”; in [10], “>=7.5”.
For the molecule `Cc1cc(C(=O)Nc2cccc([C@H](C)Cc3nncs3)c2)nc(C2CC2)n1`, the “fold change (FC)” value in [1] was 1.01; in experiment [2], “>=0.201”; in [3] it was 0.801; in [4], 0.601; in [5] it was 0.101; in experiment [6], 1.01. For the same molecule, the “fold change (FC)” value in [7] is listed as 1.01; in experiment [8], 1.01; in [9], 5; in [10] it was 2.51.
As for `C[C@H](Cc1nncn1C)c1cccc(NC(=O)c2cc(C(=O)N3CC[C@](C)(O)C3)ccn2)c1`, the “fold change (FC)” value in experiment [1] is recorded as 1.51; in experiment [2] it was “<=0.05”; in experiment [3], “<=0.6”; in experiment [4] it was “<=0.6”; in experiment [5], “<=0.05”; in experiment [6] it was 1.31. The “fold change (FC)” value is 1.51 in experiment [7], “<=1” in [8], “<=1” in [9] and “<=1” in experiment [10].
Consider `C[C@H](Cc1nncn1C)c1cccc(NC(=O)c2cccc(C(F)(F)CO)n2)c1`, for which the “fold change (FC)” value in experiment [1] was 1.01; in experiment [2], 0.051; in experiment [3], “<=0.6”; in experiment [4] it was “<=0.6”; in experiment [5], “<=0.05”; in experiment [6] it was 1.31. Besides, the “fold change (FC)” value in experiment [7] was “>=1.76”; in [8], “<=1”; in experiment [9] it was “<=1”; in [10], “<=1”.
`Cc1ccc(C(=O)Nc2cccc([C@H](C)Sc3nncn3C)c2)nc1C(F)(F)F`: the “fold change (FC)” value in [1] is reported as “<=1”; in [2], “<=0.05”; in [3], “>=1.001”; in [4] it was 0.601; in experiment [5], “<=0.05”; in experiment [6], 1.01. In addition, the “fold change (FC)” value was 1.01 in experiment [7], “<=1” in experiment [8], 1.01 in [9] and “<=1” in experiment [10].
On to `CC(Sc1nncn1C)c1cc(F)cc(N2Cc3c(cccc3C(F)(F)F)C2=O)c1` (stereo not given), for which the “fold change (FC)” value is on record as “<=1” in experiment [1]; 0.051 in experiment [2]; 0.601 in experiment [3]; 0.801 in experiment [4]; “<=0.05” in [5]; “<=1” in experiment [6]. Besides, the “fold change (FC)” value in experiment [7], in experiment [8], in experiment [9] and in experiment [10] was 1.01 each time.
For the molecule `C[C@H](Sc1nncn1C)c1cccc(NC(=O)c2cc(C(F)(F)F)ccn2)c1`, the “fold change (FC)” value is on record as 1.01 in experiment [1]; 0.101 in experiment [2]; “>=1.001” in experiment [3]; 0.601 in [4]; “<=0.05” in experiment [5]; 1.01 in experiment [6]. Also, the “fold change (FC)” value is 1.01 in experiment [7], “<=1” in experiment [8], 1.01 in experiment [9] and 1.01 in [10].
As to `Cc1conc1C[C@@H](C)c1cccc(N2Cc3c(cccc3C(F)(F)F)C2=O)c1`, the “fold change (FC)” value in experiment [1] was 1.01; in experiment [2] it was 0.151; in experiment [3], 0.801; in [4], 0.601; in experiment [5], 0.051; in experiment [6], “<=1”. The “fold change (FC)” value in experiment [7] is 1.01; in experiment [8], “<=1”; in experiment [9] it was 1.01; in [10], “<=1”.
`C[C@H](O)CNc1cc([C@H](C)Cc2nncn2C)cc(N2Cc3c(cccc3C(F)(F)F)C2=O)n1`: the “fold change (FC)” value is reported as 1.01 in experiment [1]; 0.101 in experiment [2]; 0.601 in experiment [3]; 0.601 in [4]; 0.051 in [5]; 1.01 in experiment [6]. The “fold change (FC)” value in experiment [7], in experiment [8], in experiment [9] and in experiment [10] was 1.01 each time.
As to `COc1cccc(C(=O)Nc2cccc([C@H](C)Sc3nncn3C)c2)n1`, the “fold change (FC)” value in experiment [1] is “<=1”; in experiment [2], 0.151; in experiment [3], 0.601; in experiment [4] it was “<=0.6”; in experiment [5], 0.101; in experiment [6] it was “<=1”. Besides, the “fold change (FC)” value is on record as 1.31 in [7], 1.01 in [8], 2.51 in experiment [9] and 1.01 in experiment [10].
On to `Cc1ccc(C(=O)Nc2cccc(C(C)Cc3nccn3C)c2)nc1C1CC1` (stereo in doubt; 214), for which the “fold change (FC)” value in [1] is given as “<=1”; in [2], 0.051; in experiment [3] (8 µM) it was “<=0.6”; in [4], “<=0.6”; in [5] (1 µM), 0.051; in experiment [6] it was “<=1”. In addition, the “fold change (FC)” value in experiment [7] is 1.01; in experiment [8] (0.3 µM) it was “>=7.5”; in experiment [9] (4 µM), “>=7.5”; in experiment [10] (1 µM), “>=7.5”.
Consider `Cc1ccc(C(=O)Nc2cccc([C@H](C)Cc3nnc[nH]3)c2)nc1C1CC1`, for which the “fold change (FC)” value in [1] was 1.51; in experiment [2], “<=0.05”; in experiment [3], “<=0.6”; in experiment [4] it was “<=0.6”; in experiment [5], “<=0.05”; in [6] it was 1.51. Moreover, the “fold change (FC)” value in [7] is given as “>=1.76”; in experiment [8], 1.01; in [9], 1.01; in experiment [10] it was 1.01.
On to `C[C@H](CO)Nc1cc([C@H](C)Cc2nncn2C)cc(N2Cc3c(cccc3C(F)(F)F)C2=O)n1`, for which the “fold change (FC)” value in experiment [1] is listed as 1.01; in [2] it was “>=0.201”; in experiment [3], “>=1.001”; in experiment [4], 0.801; in experiment [5], 0.051; in experiment [6], 1.01. Also, the “fold change (FC)” value in [7] is 1.31; in experiment [8] it was 1.01; in experiment [9] it was 5; in experiment [10], 2.51.
As for `CC1CCc2c1n[nH]c2C(=O)Nc1cccc([C@H](C)Cc2nncn2C)c1` (stereo not given in full), the “fold change (FC)” value is “<=1” in experiment [1]; “>=0.201” in [2]; “>=1.001” in experiment [3]; 0.601 in experiment [4]; 0.101 in [5]; “<=1” in [6]. Also, the “fold change (FC)” value in experiment [7] is on record as 1.01; in experiment [8], 1.01; in experiment [9], 5; in experiment [10], 2.51.
Regarding `Cn1cnnc1C(F)(F)[C@](C)(F)c1cccc(N2Cc3c(cc(CN4CC(C#N)C4)cc3C(F)(F)F)C2=O)c1`, the “fold change (FC)” value in experiment [1] is 1.01; in experiment [2] it was 0.101; in [3] it was “>=1.001”; in experiment [4], 0.801; in [5], 0.051; in experiment [6] it was 1.01. For the same molecule, the “fold change (FC)” value in [7] is listed as 1.01; in experiment [8] it was 1.01; in experiment [9] it was 5; in [10] it was 2.51.
